Results on 25 molecules are retold here after patent US10239873B2, “7-azaindole or 4,7-diazaindole derivatives as IKKϵ epsilon and TBK1 inhibitor and pharmaceutical composition comprising same” (GREEN CROSS CORPORATION, priority 2015, dated 2019).

The target in the experiment is T1, TBK1 (Homo sapiens, UniProt Q9UHD2).
T1 construct: purchased Promega (Invitrogen is also named in the same bracket) V4158; PR8031B; V3991 (not assigned to the two kinases)
T1 sequence (Q9UHD2 1-729): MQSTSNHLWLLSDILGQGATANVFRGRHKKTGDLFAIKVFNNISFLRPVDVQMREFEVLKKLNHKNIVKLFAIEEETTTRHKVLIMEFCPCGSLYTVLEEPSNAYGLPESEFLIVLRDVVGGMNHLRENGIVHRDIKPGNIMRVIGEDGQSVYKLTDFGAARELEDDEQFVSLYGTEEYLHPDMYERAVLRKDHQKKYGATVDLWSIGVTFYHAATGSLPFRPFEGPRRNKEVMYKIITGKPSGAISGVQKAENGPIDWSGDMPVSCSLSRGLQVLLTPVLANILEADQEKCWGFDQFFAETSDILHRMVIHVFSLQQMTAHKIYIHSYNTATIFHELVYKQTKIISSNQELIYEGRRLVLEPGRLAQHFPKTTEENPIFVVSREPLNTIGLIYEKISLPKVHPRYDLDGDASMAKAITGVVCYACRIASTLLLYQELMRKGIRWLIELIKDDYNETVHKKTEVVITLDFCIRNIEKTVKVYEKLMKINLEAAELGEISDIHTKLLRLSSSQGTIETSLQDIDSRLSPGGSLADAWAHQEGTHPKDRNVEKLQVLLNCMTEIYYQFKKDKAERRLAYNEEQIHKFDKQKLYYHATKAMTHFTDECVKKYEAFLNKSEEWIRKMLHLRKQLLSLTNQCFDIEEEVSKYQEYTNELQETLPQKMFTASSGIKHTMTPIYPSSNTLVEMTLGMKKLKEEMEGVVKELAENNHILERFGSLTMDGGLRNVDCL
Briefly: ADP-Glo Kinase Assay, inhibition activity on TBK1. In kind it is biochemical. How it is done:
Inhibition activities on IKKϵ and TBK1 were evaluated using the compounds of Examples 1 to 250.
The inhibition activities on IKKϵ and TBK1 were measured by a luminometer, IKKϵ/TBK1 Kinase Enzyme System (Promega, Ca# V4158; Invitrogen, PR8031B, Promega, Ca# V3991) and ADP-Glo Kinase Assay using ADP-Glo™ Kinase Analysis Kit (Promega, Ca# V9101) and a kinase reaction buffer [40 mM Tris(pH 7.5), 20 mM MgCl2, 0.1 mg/mL BSA] in accordance with the manufacturer's protocol.
A general note: ADP-Glo first removes unused ATP, then detects ADP through luciferase.
The IC50 is the midpoint of a concentration-inhibition curve. Read a high IC50 as lower potency. In turn, `CC(C)NC(=O)N1CC=C(c2c[nH]c3ncc(-c4ccc(CN5CCOCC5)s4)cc23)CC1` [Example 34, N-isopropyl-4-(5-(5-(morpholinomethyl)thiophen-2-yl)-1H-pyrrolo[2,3-b]pyridin-3-yl)-5,6-dihydropyridine-1(2H)-carboxamide] returned an IC50 of 0.00073 µM.

For `CCC(C)NC(=O)N1CC=C(c2c[nH]c3ncc(-c4ccc(CN5CCOCC5)s4)cc23)CC1` (stereo not shown) [Example 43, N-(sec-butyl)-4-(5-(5-(morpholinomethyl)thiophen-2-yl)-1H-pyrrolo[2,3-b]pyridin-3-yl)-5,6-dihydropyridine-1(2H)-carboxamide], half-maximal inhibition (IC50) was put at 0.0055 µM.

`CCC(C)NC(=O)N1CC=C(c2c[nH]c3ncc(-c4ccc(OC)c(OC)c4)cc23)CC1` (stereo not shown) [Example 44, N-(sec-butyl)-4-(5-(3,4-dimethoxyphenyl)-1H-pyrrolo[2,3-b]pyridin-3-yl)-5,6-dihydropyridine-1(2H)-carboxamide] showed an IC50 of 0.0075 µM.

Molecule `COc1ccc(-c2cnc3[nH]cc(C4=CCN(C(=O)NC5CCCC5)CC4)c3c2)cc1OC` [Example 49, N-cyclopentyl-4-(5-(3,4-dimethoxyphenyl)-1H-pyrrolo[2,3-b]pyridin-3-yl)-5,6-dihydropyridine-1(2H)-carboxamide] yielded an IC50 of 0.032 µM.

Molecule `CS(=O)(=O)c1ccc(-c2cnc3[nH]cc(C4=CCN(C(=O)NC5CCCC5)CC4)c3c2)cc1` [Example 51, N-cyclopentyl-4-(5-(4-(methylsulfonyl)phenyl)-1H-pyrrolo[2,3-b]pyridin-3-yl)-5,6-dihydropyridine-1(2H)-carboxamide] displayed an IC50 of 0.051 µM.

`CCS(=O)(=O)c1ccc(-c2cnc3[nH]cc(C4=CCN(C(=O)NC5CCCC5)CC4)c3c2)cc1` [Example 53, N-cyclopentyl-4-(5-(4-(ethylsulfonyl)phenyl)-1H-pyrrolo[2,3-b]pyridin-3-yl)-3,6-dihydropyridine-1(2H)-carboxamide] yielded an IC50 of 0.066 µM.

Molecule `NS(=O)(=O)c1cccc(-c2cnc3[nH]cc(C4=CCN(C(=O)NC5CCCC5)CC4)c3c2)c1` [Example 57, N-cyclopentyl-4-(5-(3-sulfamoylphenyl)-1H-pyrrolo[2,3-b]pyridin-3-yl)-5,6-dihydropyridine-1(2H)-carboxamide] returned an IC50 of 0.031 µM.

`NS(=O)(=O)c1ccc(-c2cnc3[nH]cc(C4=CCN(C(=O)NC5CCCC5)CC4)c3c2)cc1` [Example 58, N-cyclopentyl-4-(5-(4-sulfamoylphenyl)-1H-pyrrolo[2,3-b]pyridin-3-yl)-5,6-dihydropyridine-1(2H)-carboxamide] had an IC50 of 0.061 µM.

Molecule `CNS(=O)(=O)c1cccc(-c2cnc3[nH]cc(C4=CCN(C(=O)NC5CCCC5)CC4)c3c2)c1` [Example 59, N-cyclopentyl-4-(5-(3-(N-methylsulfamoyl)phenyl)-1H-pyrrolo[2,3-b]pyridin-3-yl)-5,6-dihydropyridine-1(2H)-carboxamide] came in with an IC50 of 0.03 µM.

`CNS(=O)(=O)c1ccc(-c2cnc3[nH]cc(C4=CCN(C(=O)NC5CCCC5)CC4)c3c2)cc1` [Example 60, N-cyclopentyl-4-(5-(4-(N-methylsulfamoyl)phenyl)-1H-pyrrolo[2,3-b]pyridin-3-yl)-5,6-dihydropyridine-1(2H)-carboxamide] displayed an IC50 of 0.038 µM.

In turn, `O=C(NC1CCCC1)N1CC=C(c2c[nH]c3ncc(-c4ccc(S(=O)(=O)N5CCOCC5)cc4)cc23)CC1` [Example 61, N-cyclopentyl-4-(5-(4-(morpholinosulfonyl)phenyl)-1H-pyrrolo[2,3-b]pyridin-3-yl)-5,6-dihydropyridine-1(2H)-carboxamide] gave an IC50 of 0.086 µM.

Molecule `O=C(NC1CCCC1)N1CC=C(c2c[nH]c3ncc(-c4cccc(S(=O)(=O)N5CCOCC5)c4)cc23)CC1` [Example 62, N-cyclopentyl-4-(5-(3-(morpholinosulfonyl)phenyl)-1H-pyrrolo[2,3-b]pyridin-3-yl)-5,6-dihydropyridine-1(2H)-carboxamide] registered an IC50 of 0.091 µM.

In turn, `O=C(NC1CCCC1)N1CC=C(c2c[nH]c3ncc(-c4ccc(CCN5CCOCC5)cc4)cc23)CC1` [Example 64, N-cyclopentyl-4-(5-(4-(2-morpholinoethyl)phenyl)-1H-pyrrolo[2,3-b]pyridin-3-yl)-5,6-dihydropyridine-1(2H)-carboxamide] came in with an IC50 of 0.11 µM.

The molecule `CC(=O)Nc1ccc(N)c(-c2cnc3[nH]cc(C4=CCN(C(=O)NC5CCCC5)CC4)c3c2)c1` [Example 65, 4-(5-(5-Acetamido-2-aminophenyl)-1H-pyrrolo[2,3-b]pyridin-3-yl)-N-cyclopentyl-5,6-dihydropyridine-1(2H)-carboxamide] came in with an IC50 of 1.9 µM.

`O=C(NCc1ccco1)c1ccc(-c2cnc3[nH]cc(C4=CCN(C(=O)NC5CCCC5)CC4)c3c2)cc1` [Example 66, N-cyclopentyl-4-(5-(4-((furan-2-ylmethyl)carbamoyl)phenyl)-1H-pyrrolo[2,3-b]pyridin-3-yl)-5,6-dihydropyridine-1(2H)-carboxamide] came in with an IC50 of 0.25 µM.

On to `O=C(NCc1ccco1)c1cccc(-c2cnc3[nH]cc(C4=CCN(C(=O)NC5CCCC5)CC4)c3c2)c1` [Example 67, N-cyclopentyl-4-(5-(3-((furan-2-ylmethyl)carbamoyl)phenyl)-1H-pyrrolo[2,3-b]pyridin-3-yl)-5,6-dihydropyridine-1(2H)-carboxamide], for which half-maximal inhibition (IC50) was put at 0.41 µM.

Molecule `O=C(NC1CCCC1)N1CC=C(c2c[nH]c3ncc(-c4cccc(OCCN5CCOCC5)c4)cc23)CC1` [Example 68, N-cyclopentyl-4-(5-(3-(2-morpholinoethoxy)phenyl)-1H-pyrrolo[2,3-b]pyridin-3-yl)-5,6-dihydropyridine-1(2H)-carboxamide] gave an IC50 of 0.064 µM.

Molecule `O=C(NC1CCCC1)N1CC=C(c2c[nH]c3ncc(-c4ccc(OCCN5CCOCC5)cc4)cc23)CC1` [Example 69, N-cyclopentyl-4-(5-(4-(2-morpholinoethoxy)phenyl)-1H-pyrrolo[2,3-b]pyridin-3-yl)-5,6-dihydropyridine-1(2H)-carboxamide] gave an IC50 of 0.065 µM.

With `O=C(NC1CCCC1)N1CC=C(c2c[nH]c3ncc(-c4ccc(OCCCN5CCOCC5)cc4)cc23)CC1` [Example 70, N-cyclopentyl-4-(5-(4-(3-morpholinopropoxy)phenyl)-1H-pyrrolo[2,3-b]pyridin-3-yl)-5,6-dihydropyridine-1(2H)-carboxamide], the midpoint of inhibition, the IC50, lay at 0.4 µM.

`CN1CCN(Cc2ccc(-c3cnc4[nH]cc(C5=CCN(C(=O)NC6CCCC6)CC5)c4c3)s2)CC1` [Example 71, N-cyclopentyl-4-(5-(5-((4-methylpiperazin-1-yl)methyl)thiophen-2-yl)-1H-pyrrolo[2,3-b]pyridin-3-yl)-5,6-dihydropyridine-1(2H)-carboxamide] displayed an IC50 of 0.005 µM.

As for `O=C(NC1CCCC1)N1CC=C(c2c[nH]c3ncc(-c4csc(CN5CCOCC5)c4)cc23)CC1` [Example 73, N-cyclopentyl-4-(5-(5-(morpholinomethyl)thiophen-3-yl)-1H-pyrrolo[2,3-b]pyridin-3-yl)-5,6-dihydropyridine-1(2H)-carboxamide], the IC50 stood at 0.62 µM.

For the molecule `O=C(NC1CCCC1)N1CC=C(c2c[nH]c3ncc(-c4ccc(C(=O)N5CCOCC5)s4)cc23)CC1` [Example 74, N-cyclopentyl-4-(5-(5-(morpholine-4-carbonyl)thiophen-2-yl)-1H-pyrrolo[2,3-b]pyridin-3-yl)-5,6-dihydropyridine-1(2H)-carboxamide], the IC50 was determined as 0.053 µM.

On to `O=C(NC1CCCC1)N1CC=C(c2c[nH]c3ncc(-c4ccc(C(=O)N5CCOCC5)cc4)cc23)CC1` [Example 75, N-cyclopentyl-4-(5-(4-(morpholine-4-carbonyl)phenyl)-1H-pyrrolo[2,3-b]pyridin-3-yl)-5,6-dihydropyridine-1(2H)-carboxamide], for which inhibition was half-maximal at 0.025 µM (IC50).

`O=C(NC1CCCC1)N1CC=C(c2c[nH]c3ncc(-c4ccc(Cl)c(C(=O)N5CCOCC5)c4)cc23)CC1` [Example 76, 4-(5-(4-Chloro-3-(morpholine-4-carbonyl)phenyl)-1H-pyrrolo[2,3-b]pyridin-3-yl)-N-cyclopentyl-3,6-dihydropyridine-1(2H)-carboxamide 2,2,2-trifluoroacetate] had an IC50 of 0.29 µM.

Regarding `O=C(NC1CCCC1)N1CC=C(c2c[nH]c3ncc(-c4cc(Cl)cc(C(=O)N5CCOCC5)c4)cc23)CC1` [Example 77, 4-(5-(3-Chloro-5-(morpholine-4-carbonyl)phenyl)-1H-pyrrolo[2,3-b]pyridin-3-yl)-N-cyclopentyl-3,6-dihydropyridine-1(2H)-carboxamide 2,2,2-trifluoroacetate], the IC50 is 0.25 µM.
